Reference: patent US20120172344A1, “INSULIN-PRODUCING CELL INDUCER, GLUCOSE INTAKE ENHANCER, AND THERAPEUTIC AGENT FOR DIABETES OR DIABETES COMPLICATIONS” (KYUSHU UNIVERSITY, NATIONAL UNIVERSITY CORPORATION, priority 2009, published 2012)

Tested on: Tg23 mice
Assay: Experimental Example 4: blood glucose, blood parameters, food consumption and oral glucose tolerance test
Format: in vivo, mouse
Settings: for blood glucose level: Tg23 mice 11 weeks of age
Procedure: Blood glucose levels were measured by an enzyme-electrode method with ONE TOUCH UltraVue (Johnson & Johnson K.K.) on whole blood taken from tail veins of subject animals.
Immediately before collecting organs, blood parameters were measured using various methods and measurement kits described below in blood collected from the hearts of animals anesthetized with nembutal.
(c) Blood urea nitrogen (BUN): Urease UV method,
(d) Aspartate aminotransferase (AST) and alanine aminotransferase (ALT): JSCC standardization method,
(e) Serum insulin concentration: Enzyme-linked immunosorbent assay kit (Morinaga Institute of Biological Science),
(f) Serum glucagon concentration: YK142 Mouse […] EIA kit (Yanaihara Institute Inc.),
(g) Total serum cholesterol level: Enzymatic assay reagent (Wako Pure Chemical Industries),
After a 16-hour fast, mice were administered with glucose (1 g/kg of body weight) by gavage. Blood samples were collected from the tail vein at 0, 15, 30, 60, 90, and 120 minutes after the oral administration, and blood glucose levels were measured. In addition, blood samples were collected from the tail vein in a similar manner at 0, 15, and 30 minutes after the oral administration, and serum insulin concentrations were measured.
Subject mice were individually housed in metabolic cages for four days to assess food consumption (g/24 h) and water consumption (ml/24 h). During measurement, food and water were supplied to the mice ad libitum. Measurements were repeated three times for each group.
Tg23 mice (11 weeks of age) were divided into four groups (each group: n=4 to 10): an estradiol administration group (E only group), a testectomy group (Tx only group), a testectomy-and-estradiol administration group (Tx+E group), and a control group (Tg group). For E only group, sham surgery of testectomy (Tx) was performed, and a single pellet of 17β-estradiol (E) was subcutaneously administered at the nape of the neck. […] For Tx+E group, testectomy was performed, and a single pellet of 17β-estradiol was subcutaneously administered at the nape of the neck.
Then, blood glucose levels (mg/dl) were measured every week for E only group, Tx only group, Tx+E group, and Tg group, and wild-type mice (WT). In addition, measurements were performed with Tx+E group, Tg group, and wild-type mice (WT), for serum insulin concentrations (pg/mL), serum glucagon concentrations (pg/mL), blood urea nitrogen (BUN) concentrations (mg/dL), total serum cholesterol levels ([…]), aspartate aminotransferase (AST)/alanine aminotransferase (ALT), and food consumption per day (g/day). Furthermore, oral glucose tolerance test was performed, and changes in blood glucose level and serum insulin concentration over time were measured.

[1] = Tx+E mice, glucose 1 g/kg by gavage after 16-hour fast

C[C@]12CC[C@@H]3c4ccc(O)cc4CC[C@H]3[C@@H]1CC[C@@H]2O [estradiol, 17β-estradiol]
blood glucose level (E only group (sham surgery + 17β-estradiol pellet s.c.)): effective for reducing blood glucose level | blood glucose level (Tx+E group (testectomy + 17β-estradiol pellet s.c.)): effective for reducing blood glucose level | AST/ALT (Tx+E mice): returned to normal | blood urea nitrogen (BUN) (Tx+E mice): returned to normal | food consumption per day (Tx+E mice): returned to normal | serum glucagon (Tx+E mice): returned to normal | serum insulin level (Tx+E mice): largely increased | total serum cholesterol (Tx+E mice): returned to normal | blood glucose level in oral glucose tolerance test [1]: returned to basal level after a time point of 180 minutes | insulin secretion in oral glucose tolerance test [1]: increased
